According to patent US9040568B2, “Pharmaceutical compositions for the treatment of pain” (AbbVie Inc., priority 2009, dated 2015):

How the values were obtained:
[1] = test system: carrageenan-induced acute inflammatory thermal hyperalgesia; experiment: Carrageenan model of acute inflammatory thermal hyperalgesia; assay type: in vivo, rat; settings: for increase of the PWLcontra: vs vehicle
Description: Acute inflammatory thermal hyperalgesia were induced by injecting 100 μl of a 1% solution of λ-carrageenan (Sigma Chemical Co., St. Louis, Mo.) in physiological saline into the plantar surface of the right hind paw. Thermal hyperalgesia measured as paw withdrawal latency (PWL) was determined, using a commercially available thermal paw stimulator (UARDG, University of California, San Diego, Calif.) as described by Hargreaves et al. (Hargreaves et al., 1988). Rats were placed into individual plastic cubicles mounted on a glass surface maintained at 30° C., where a thermal stimulus, in the form of radiant heat emitted from a focused projection bulb, was then applied to the plantar surface of each hind paw. The stimulus current was maintained at 4.50±0.05 amp, and the maximum time of exposure was set at 20.48 s to limit possible tissue damage. The elapsed time until a brisk withdrawal of the hind paw from the thermal stimulus was recorded automatically using photodiode motion sensors. The right (carrageenan injected paw) and left hind paw of each rat was tested in 3 sequential trials at approximately 5 min intervals. Carrageenan-induced thermal hyperalgesia of paw withdrawal latency (PWLcarra) was calculated as the mean of the two shortest latencies. PWL was assessed 30 min (2 h after carrageenan injection) following i.p. compound administration. PWLcarra of the vehicle control group was taken as 0%, whereas the PWL of the contralateral side (PWLcontra) of the vehicle control group was taken as 100%, the analgesic efficacy was expressed as the percentage return of PWLcarra to PWLcontra.

emesis in ferrets = experiment: Emesis in ferrets; assay type: in vivo, ferret
Description: Fasted male ferrets (Marshall BioResources, North Rose, N.Y.) weighing between 1.0 and 1.7 kg are used to determine the emetic effects. α4β2 PAM (Compound 1) was administered first and thirty minutes later, Compound A was administered at various doses. […] The percentage of animals that experienced emesis at a given dose was recorded.

[2] = target: T1, human α3β4 nicotinic acetylcholine receptor subtype expressed in HEK-293 cells (Homo sapiens, UniProt P30926+P32297); experiment: Calcium flux assay (FLIPR) in HEK-293 cells expressing human α3β4; assay type: cell-based; settings: agonists Compound A and Compound B
T1 construct: expressed in transfected cells
Description: Calcium Flux Assays Using Cells Expressing nAChR Subtypes
Human embryonic kidney (HEK) 293 cells stably expressing human α4β2 or α3β4 combinations are grown to confluency in 162 cm^2 tissue culture flasks in DMEM media supplemented with 10% FBS and 25 μg/ml zeocin and 200 μg/ml hygromycin B. IMR-32 neuroblastoma cells (ATCC) are grown to confluency in 162 cm^2 tissue culture flasks in minimum essential media supplemented with 10% FBS and 1 mM sodium pyruvate, 1% non-essential amino acids and 1% antibiotic-antimycotic. […] Calcium flux was measured using calcium-3 assay kit (Molecular Devices, Sunnyvale, Calif.) or fluo-4 (Invitrogen). […] The cells were loaded with 100 μl of the dye per well and incubated at room temperature for up to one hour for HEK 293 clonal stable cell lines or 30 minutes-45 minutes at 37° C. for IMR-32 cells Fluorescence measurements were read simultaneously from all the wells by a Fluorometic Imaging Plate Reader (FLIPR) at an excitation wavelength of 480 nm and an emission wavelength of 520 nm. Baseline fluorescence was measured for the first 6 seconds at which 3× concentrations of modulator/test compounds were added to the cell plate at 50 μl and incubated for five minutes. The fluorescence intensity was captured every second for the first 1 minute followed by every 5 seconds for an additional 4 minutes. […]

T1 sequence (P32297 32-505): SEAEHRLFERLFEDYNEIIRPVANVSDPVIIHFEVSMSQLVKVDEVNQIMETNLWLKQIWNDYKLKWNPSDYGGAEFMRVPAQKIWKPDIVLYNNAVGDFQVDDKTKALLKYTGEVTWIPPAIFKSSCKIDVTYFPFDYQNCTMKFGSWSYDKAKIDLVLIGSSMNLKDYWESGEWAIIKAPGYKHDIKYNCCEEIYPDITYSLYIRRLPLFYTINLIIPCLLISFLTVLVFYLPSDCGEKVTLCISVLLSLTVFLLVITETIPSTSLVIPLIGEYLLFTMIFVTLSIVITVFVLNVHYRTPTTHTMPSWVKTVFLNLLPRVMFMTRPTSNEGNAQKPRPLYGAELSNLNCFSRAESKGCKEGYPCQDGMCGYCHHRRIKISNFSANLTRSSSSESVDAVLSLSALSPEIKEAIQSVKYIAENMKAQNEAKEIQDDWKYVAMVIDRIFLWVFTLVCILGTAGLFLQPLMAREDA
T1 sequence (P30926 22-498): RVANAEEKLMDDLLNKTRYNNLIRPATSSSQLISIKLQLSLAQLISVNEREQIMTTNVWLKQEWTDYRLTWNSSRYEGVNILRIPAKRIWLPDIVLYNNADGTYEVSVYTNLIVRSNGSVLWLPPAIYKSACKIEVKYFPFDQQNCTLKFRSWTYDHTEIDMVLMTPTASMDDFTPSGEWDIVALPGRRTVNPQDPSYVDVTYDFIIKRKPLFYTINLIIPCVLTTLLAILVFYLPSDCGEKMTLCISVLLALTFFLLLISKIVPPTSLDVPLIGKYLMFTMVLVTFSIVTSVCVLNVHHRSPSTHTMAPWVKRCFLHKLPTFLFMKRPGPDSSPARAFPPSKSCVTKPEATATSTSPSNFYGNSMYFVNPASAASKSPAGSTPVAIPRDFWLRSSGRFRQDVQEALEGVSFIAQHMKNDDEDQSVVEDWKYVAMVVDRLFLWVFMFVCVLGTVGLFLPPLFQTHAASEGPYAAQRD

SMILES	percent reversal of thermal hyperalgesia ([1]; Compound A 10 nmol/kg combined with Compound 1 (3.5 μmol/kg)) [%]	PWLcarra ([1]; Compound A 10 nmol/kg i.p. in the presence of Compound 1 (3.5 μmol/kg)) [s]	percent reversal of thermal hyperalgesia ([1]; Compound A 30 nmol/kg combined with Compound 1 (3.5 μmol/kg)) [%]	PWLcarra ([1]; Compound A 30 nmol/kg i.p. in the presence of Compound 1 (3.5 μmol/kg)) [s]	percent reversal of thermal hyperalgesia ([1]; Compound A 100 nmol/kg combined with Compound 1 (3.5 μmol/kg)) [%]	PWLcarra ([1]; Compound A 100 nmol/kg i.p. in the presence of Compound 1 (3.5 μmol/kg)) [s]	percent reversal of thermal hyperalgesia ([1]; Compound A alone, 100 nmol/kg) [%]	PWLcarra ([1]; Compound A alone, 100 nmol/kg i.p.) [s]	percent reversal of thermal hyperalgesia ([1]; Compound A alone, 300 nmol/kg) [%]	PWLcarra ([1]; Compound A alone, 300 nmol/kg i.p.) [s]	increase of the PWLcontra ([1]; Compound A and Compound 1 co-administered animals)	increase of the PWLcontra ([1]; Compound A treated animals)	ED50 ([1]; Rattus norvegicus, Compound A alone, read-out: ED50 (reversal of thermal hyperalgesia)) [µmol/kg]	leftward shift in the DRC of Compound A ([1]; co-administration of Compound 1) [fold]	alteration of PWLcarra ([1]; Compound 1 alone, up to 35 μmmol/kg, i.p.)	effect on the dose response curve of Compound A for emesis (emesis in ferrets; Compound 1 3.5 μmol/kg with various doses of Compound A)	emesis (emesis in ferrets; alone)	effect of the PAM on the concentration responses to the agonists [2]
Clc1ccc(OC[C@H]2CCN2)cn1 [Compound A, 5-[(2R)-azetidin-2-ylmethoxy]-2-chloropyridine]	31±13	5.29 ± 0.91	46±10	6.35 ± 0.71	84±12	8.94 ± 0.79	28±5	5.46 ± 0.36	74±9	8.80 ± 0.65	not statistically significant	not statistically significant	0.16	5	–	–	–	–
N#Cc1cccc(-c2nc(-c3cccnc3)no2)c1 [Example 1, 3-(3-(pyridin-3-yl)-1,2,4-oxadiazol-5-yl)benzonitrile]	–	–	–	–	–	–	–	–	–	–	–	–	–	–	produced no alteration of PWLcarra	does not shift the dose response curve of Compound A	does not cause emesis	unable to affect the concentration responses to the agonists
